Test results reported in PubChem BioAssay (NCI).
Where “and” joins values, the source holds several entries; their conditions need not be identical. Equal values may be shown once.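 48-hour exposure; five concentrations; linearly interpolated endpoints. The concentration for 50% growth inhibition is given as GI50. The concentration for full growth arrest is given as TGI.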

Assays:
Assay in all cases: NCI anticancer screen, dose series, 48 h
[1] = test system: DLD-1 colon
[2] = test system: DMS 114 small cell lung
[3] = test system: EKVX NSCLC
[4] = test system: OVCAR-4 ovarian
[5] = test system: SK-MEL-5 melanoma
[6] = test system: SNB-75 CNS
[7] = test system: SW-620 colon
[8] = test system: UO-31 renal
[9] = test system: PC-3 prostate
[10] = test system: T-47D breast

SMILES | TGI [1] | TGI [2] | TGI [3] | TGI [4] | TGI [5] | TGI [6] | TGI [7] | TGI [8] | TGI [9] | TGI [10] | GI50 [3] [µM] | GI50 [4] [µM] | GI50 [9] | GI50 [5] [µM] | GI50 [6] [µM] | GI50 [7] | GI50 [10] | GI50 [8] | GI50 [1] [µM] | GI50 [2] [µM]
CCOC(=O)[C@@]1(C)C=C2O[C@@H]3OC4(CCCCC4)O[C@@H]3C2=C2C(O)=CC=C(O)[C@]21C(=O)OC | > 68 µM | > 68 µM | > 68 µM | > 68 µM | > 68 µM | > 68 µM | > 68 µM | > 68 µM | – | – | – | – | – | – | – | – | – | – | – | –
Nn1c(-c2ccccc2)nc2ccc(Br)cc2c1=O | > 100 µM | > 100 µM | > 100 µM | 86.7 µM | > 100 µM | > 100 µM | > 100 µM | > 100 µM | – | – | – | – | – | – | – | – | – | – | – | –
O=C1C(=O)N(C(=O)c2ccc(Cl)c(Cl)c2)c2ccccc21 | > 100 µM | > 100 µM | > 100 µM | > 100 µM | > 100 µM | > 100 µM | > 100 µM | > 100 µM | – | – | – | – | – | – | – | – | – | – | – | –
O=C(O)CSc1n[nH]c(-c2ccc(O)cc2)n1 | > 100 µM | > 100 µM | > 100 µM | > 100 µM | > 100 µM | > 100 µM | > 100 µM | > 100 µM | – | – | – | – | – | – | – | – | – | – | – | –
O=C1CC(O)C=C1Nc1ccc(Cl)cc1 (centres undefined) | > 100 µM | > 100 µM | 60.8 µM | > 100 µM | > 100 µM | > 100 µM | > 100 µM | > 100 µM | – | – | – | – | – | – | – | – | – | – | – | –
COC(=O)C1CC2(CC3=C1CCCC3)OCCO2 (centres undefined) | > 100 µM | > 100 µM | > 100 µM | > 100 µM | > 100 µM | > 100 µM | > 100 µM | > 100 µM | – | – | – | – | – | – | – | – | – | – | – | –
COc1cc([C@H]2c3cc4c(cc3O[C@@]3(O)COC(=O)[C@@H]23)OCO4)cc(OC)c1OC | > 100 µM | > 100 µM | > 100 µM | > 100 µM | > 100 µM | > 100 µM | > 100 µM | > 100 µM | > 100 µM | > 100 µM | – | – | – | – | – | – | – | – | – | –
CN1CC[C@@H](c2c(O)cc(O)c3c(=O)cc(-c4ccccc4Cl)oc23)[C@@H](O)C1 | > 100 µM | 0.334 µM | 0.435 µM and 0.947 µM | 0.68 µM and 3.61 µM | 0.265 µM and 0.182 µM | 0.25 µM and 0.0894 µM | 23.2 µM | 0.876 µM and 0.164 µM and 1.18 µM | – | – | 0.141 | 0.17 | 0.0655 µM and 0.0735 µM | 0.0631 | 0.0975 | 0.0594 µM and 0.0653 µM | 0.0824 µM and 0.0669 µM and 0.0342 µM | 0.0713 µM and 0.0363 µM and 0.0238 µM | – | –
CC1=C(C)C(=O)c2c(cc3ccc4ccccc4n23)C1=O | > 100 µM | > 100 µM | > 100 µM | > 100 µM | > 100 µM | > 100 µM | > 100 µM | > 100 µM | – | – | – | – | – | – | – | – | – | – | – | –
Cc1nc2c(nc1C)C(=O)c1cc(O)ccc1C2=O | > 86.8 µM | > 90.6 µM | > 100 µM | > 100 µM | 29.6 µM | > 100 µM | > 100 µM | > 100 µM | – | – | – | – | – | – | – | – | – | – | – | –
Cn1c2c(c3ccccc31)CCN(CCCCN1CCc3c(n(C)c4ccccc34)C1=O)C2 | > 100 µM | > 100 µM | > 100 µM | > 100 µM | > 100 µM | > 100 µM | > 100 µM | > 100 µM | – | – | – | – | – | – | – | – | – | – | – | –
C[C@@H]1C[C@@H](O)[C@]2(O)O[C@@H]3C[C@@]4(C=O)[C@@H](CC[C@@H]5[C@@H]4CC[C@]4(C)[C@@H](C6=CC(=O)OC6)CC[C@]54O)C[C@H]3O[C@@H]2O1 | 0.0375 µM and 0.033 µM | 0.0094 µM and 0.0134 µM | 0.0964 µM and 0.104 µM | 0.0531 µM and 0.0128 µM | 0.0303 µM and 0.055 µM and 0.0584 µM | 0.0919 µM and 0.22 µM and 0.288 µM | 0.0591 µM and 0.221 µM and 0.164 µM | 0.0559 µM and 0.0454 µM | 0.518 µM | 0.89 µM | 0.0104 | 0.0056 | – | 0.0247 | 0.051 | 0.0525 µM and 0.0111 µM | – | 0.0143 µM | 0.0053 | 0.005
CC1OC(OCC2OC(Oc3c(-c4ccc(O)cc4)oc4cc(O)cc(O)c4c3=O)C(OC3OCC(O)(CO)C3O)C(O)C2O)C(O)C(O)C1O (centres undefined) | > 100 µM | > 100 µM | > 100 µM | > 100 µM | > 100 µM | > 100 µM | > 100 µM | > 100 µM | – | – | – | – | – | – | – | – | – | – | – | –
CN1CCN(CN2C(=O)C3C4C=CC(C3C2=O)C2C3C(=O)N(CN5CCN(C)CC5)C(=O)C3C42)CC1 (centres undefined) | 49.7 µM and 41 µM and 52.4 µM | 36.8 µM and 37.7 µM and 35.5 µM | > 100 µM | 38.4 µM and 45.1 µM and 53.5 µM | 31 µM and > 58.5 µM and 68.7 µM | 79.8 µM and 72.9 µM and 92.1 µM | 43.2 µM and > 60.8 µM and 35.1 µM | 76.8 µM and > 67.8 µM and > 100 µM | 97.9 µM | > 100 µM | > 100 | – | – | – | – | – | – | – | – | –
COc1ccc(C(=O)/C(Br)=C/C(=O)O)cc1 | 73.5 µM | 114 µM | 181 µM and 115 µM | 125 µM and 120 µM | 39.6 µM and 47.7 µM | 145 µM and 186 µM | 63.6 µM and 145 µM | 77.7 µM and 103 µM | 159 µM and 257 µM | 149 µM and 260 µM | 28 | – | 74.5 µM | 12.7 | – | 19.2 µM and 24.7 µM | 15.7 µM | 20.3 µM | – | –
COc1cc(CCc2ccc(OCCN(C)C)cc2)cc(OC)c1OC | > 100 µM | > 100 µM | > 100 µM | > 100 µM | 64.6 µM | > 100 µM | > 100 µM | > 100 µM | – | – | – | – | – | – | – | – | – | – | – | –
